What all share (format): in vivo
For one test, the system named is Puccinia triticina. As to the kind of experiment: Wheat brown rust (PUCCRT) fungicidal activity on wheat seedlings. An outline of the steps:
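Compounds in acetone diluted with nine volumes water containing 110 ppm Triton X-100, sprayed to run-off on first-leaf Yuma wheat seedlings inoculated with P. triticina spores before or after treatment. Dark dew room 22° C, 100% RH overnight, then greenhouse 24° C; percent disease control from severity (0-100%) relative to untreated plants.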

A further test has as its system Venturia inaequalis. As to the kind of experiment: Apple scab (VENTIN) fungicidal activity. The conditions noted are these: 24 h, 1 Day Protectant, read-out: Disease Control VENTIN 1DP. On the procedure:
Technical grades of materials were dissolved in acetone, which were then mixed with nine volumes of water containing 110 ppm Triton X-100. The fungicide solutions were applied onto wheat seedlings using an automated booth sprayer to run-off. All sprayed plants were allowed to air dry prior to further handling. Wheat plants (variety Yuma) were grown from seed in a greenhouse in 50% mineral soil/50% soil-less Metro mix until the first leaf was fully emerged, with 7-10 seedlings per pot. These plants were inoculated with an aqueous spore suspension of Septoria tritici either prior to or after fungicide treatments. After inoculation the plants were kept in 100% relative humidity (one day in a dark dew chamber followed by two to three days in a lighted dew chamber at 20° C.) to permit spores to germinate and infect the leaf. The plants were then transferred to a greenhouse set at 20° C. for disease to develop. When disease symptoms were fully expressed on the 1st leaves of untreated plants, infection levels were assessed on a scale of 0 to 100 percent disease severity. Percent disease control was calculated using the ratio of disease severity on treated plants relative to untreated plants. Evaluation of Fungicidal Activity: Apple Scab (Venturia Inaequalis; Bayer Code […]) Apple seedlings (variety McIntosh) were grown in soil-less Metro mix, with one plant per pot. Seedlings with two expanding young leaves at the top (older leaves at bottom of the plants were trimmed) were used in the test. Plants were inoculated with a spore suspension of Venturia inaequalis 24 hr after fungicide treatment and kept in a 22° C. dew chamber with 100% RH for 48 hr, and then moved to a greenhouse set at 20° C. for disease to develop. Fungicide formulation, application and disease assessment on the sprayed leaves followed the procedures as described in the Example A.

Test [1] has as its system Mycosphaerella graminicola; Anamorph: Septoria tritici. As to the kind of experiment: Leaf blotch of wheat (SEPTTR) fungicidal activity on wheat seedlings. The conditions noted are these: Zymoseptoria tritici. An outline of the steps:
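Compounds in acetone were diluted with nine volumes of water containing 110 ppm Triton X-100 and sprayed to run-off on Yuma wheat seedlings at first-leaf stage. Septoria tritici spores were inoculated before or after treatment, followed by dew chambers at 100% RH and 20 °C, then greenhouse at 20 °C. Severity (0–100%) was scored once untreated plants were fully diseased; control was calculated relative to untreated plants.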

A further test has as its system Uncinula necator. Description: Grape powdery mildew (UNCINE) fungicidal activity. The conditions noted are these: Erysiphe necator, 24 h, 1 Day Protectant, read-out: Disease Control UNCINE 1DP. On the procedure: Technical grades of materials were dissolved in acetone, which were then mixed with nine volumes of water containing 110 ppm Triton X-100. The fungicide solutions were applied onto wheat seedlings using an automated booth sprayer to run-off. All sprayed plants were allowed to air dry prior to further handling. Wheat plants (variety Yuma) were grown from seed in a greenhouse in 50% mineral soil/50% soil-less Metro mix until the first leaf was fully emerged, with 7-10 seedlings per pot. These plants were inoculated with an aqueous spore suspension of Septoria tritici either prior to or after fungicide treatments. After inoculation the plants were kept in 100% relative humidity (one day in a dark dew chamber followed by two to three days in a lighted dew chamber at 20° C.) to permit spores to germinate and infect the leaf. The plants were then transferred to a greenhouse set at 20° C. for disease to develop. When disease symptoms were fully expressed on the 1st leaves of untreated plants, infection levels were assessed on a scale of 0 to 100 percent disease severity. Percent disease control was calculated using the ratio of disease severity on treated plants relative to untreated plants. Evaluation of Fungicidal Activity: Grape Powdery Mildew (Uncinula Necator; Bayer Code […]) Grape seedlings (variety Carignane) were grown in soil-less Metro mix, with one plant per pot, and used in the test when approximately one month old. Plants were inoculated 24 hr after fungicide treatment by shaking spores from infected leaves over test plants. Plants were maintained in a greenhouse set at 20° C. until disease was fully developed. Fungicide formulation, application and disease assessment on the sprayed leaves followed the procedures as described in the Example A.

Where [2] appears, read: 24 h, 1 Day Protectant, read-out: Disease Control PUCCRT 1 DP.
The mark [3] stands for this setting: 72 h, 3 Day Curative, read-out: Disease Control PUCCRT 3 DC.
[4] abbreviates: 24 h, 1 Day Protectant, read-out: Disease Control SEPTTR 1 DP.
Setting [5] is: 72 h, 3 Day Curative, read-out: Disease Control SEPTTR 3 DC.

Structures are written as SMILES. Where two headings read alike, the source gives them in different places.

Take `COc1ccnc(C(=O)N[C@H]2COC[C@H](Cc3ccccc3)[C@@H](OC3CCCC3)[C@H](C)OC2=O)c1OC(C)=O` [Compound 107]: the pest or weed control at 100 ppm lay in the range of 80 to 100% with Puccinia triticina (setting [2]); 80 to 100% in the test with Puccinia triticina (setting [3]); 0 to 80% with Venturia inaequalis; 80 to 100% in test [1] (setting [4]); 80 to 100% in test [1] (setting [5]); 0 to 80% with Uncinula necator.

On to `COCCCO[C@@H]1[C@@H](Cc2ccccc2)COC[C@H](NC(=O)c2nccc(OC)c2OCOC(C)=O)C(=O)O[C@H]1C` [Compound 16], for which the pest or weed control at 100 ppm is 80 to 100% in the test on Puccinia triticina (setting [2]); 80 to 100% with Puccinia triticina (setting [3]); 0 to 80% in the test on Venturia inaequalis; 80 to 100% in test [1] (setting [4]); 80 to 100% in test [1] (setting [5]); 0 to 80% in the test on Uncinula necator.

Regarding `COc1ccnc(C(=O)N[C@H]2COC[C@H](Cc3ccccc3)[C@@H](OCC(C)C)[C@H](C)OC2=O)c1OC(=O)OC(C)C` [Compound 10, 2-(((3S,7S,8R,9S)-7-benzyl-8-isobutoxy-9-methyl-2-oxo-1,5-dioxonan-3-yl)carbamoyl)-4-methoxypyridin-3-yl isopropyl carbonate], the pest or weed control at 100 ppm in the test on Puccinia triticina (setting [2]) lay within 80 to 100%; in the test with Puccinia triticina (setting [3]), 80 to 100%; with Venturia inaequalis, 80 to 100%; in test [1] (setting [4]) it was 80 to 100%; in test [1] (setting [5]), 80 to 100%; with Uncinula necator, 0 to 80%.

In the case of `COc1ccnc(C(=O)N[C@H]2COC[C@H](Cc3ccccc3)[C@@H](Oc3ccccc3)[C@H](C)OC2=O)c1OCOC(C)=O` [Compound 40], the pest or weed control at 100 ppm in the test with Puccinia triticina (setting [2]) was 80 to 100%; in the test with Puccinia triticina (setting [3]) it was 80 to 100%; in the test with Venturia inaequalis, 80 to 100%; in test [1] (setting [4]), 80 to 100%; in test [1] (setting [5]), 80 to 100%; with Uncinula necator, 0 to 80%.

Regarding `COC(=O)/C=C/O[C@@H]1[C@@H](Cc2ccccc2)COC[C@H](NC(=O)c2nccc(OC)c2OCOC(C)=O)C(=O)O[C@H]1C` [Compound 36], the pest or weed control at 100 ppm fell in the range of 80 to 100% with Puccinia triticina (setting [2]); 80 to 100% with Puccinia triticina (setting [3]); 0 to 80% in the test on Venturia inaequalis; 80 to 100% in test [1] (setting [4]); 80 to 100% in test [1] (setting [5]); 0 to 80% in the test with Uncinula necator.

As to `COc1ccnc(C(=O)N[C@H]2COC[C@H](Cc3ccccc3)[C@@H](OCCCc3ccccc3)[C@H](C)OC2=O)c1OCOC(C)=O` [Compound 34], the pest or weed control at 100 ppm lay within 80 to 100% in the test on Puccinia triticina (setting [2]); 80 to 100% in the test with Puccinia triticina (setting [3]); 80 to 100% in the test with Venturia inaequalis; 80 to 100% in test [1] (setting [4]); 80 to 100% in test [1] (setting [5]); 0 to 80% with Uncinula necator.

On to `COc1ccnc(C(=O)N[C@H]2COC[C@H](Cc3ccccc3)[C@@H](OCC(F)F)[C@H](C)OC2=O)c1OCOC(C)=O` [Compound 44], for which the pest or weed control at 100 ppm in the test with Puccinia triticina (setting [2]) was 80 to 100%; with Puccinia triticina (setting [3]) it was 80 to 100%; with Venturia inaequalis, 0 to 80%; in test [1] (setting [4]), 80 to 100%; in test [1] (setting [5]) it was 80 to 100%; in the test on Uncinula necator it was 0 to 80%.

(Values after patent US8835462B2, “Macrocyclic picolinamides as fungicides” (Dow AgroSciences LLC, priority 2012, dated 2014).)
